Tested on: MAPKAPK2
Assay: Inhibition of MAPKAPK2 in GFP-MAPKAPk2_BHK cell model (nuclear translocation)
Type: cell-based
Details: GFP-MAPKAPk2_BHK cells
Experimental: In order to study p38α inhibition in a cell system, we investigated the ability of all compounds to inhibit the phosphorylation of mitogen-activated protein-kinase-activated protein kinase 2 (MAPKAPK2). Each compound was prepared at […] concentrations (1, 3, 10 and 30 nM, 0.1 and 0.3 μM), and the percentages of inhibition were calculated from the numbers of cells after treatment with the different compounds.
GFP-MAPKAPk2_BHK cells were cultured in 96-well plates (2.0 × 10^4/100 μL/well) containing 10% heat-inactivated foetal bovine serum (FBS) and 1 mg/mL G418 at 37 °C in humidified air containing 5% CO2 for 18–24 h. The cells were washed with nutrient solution (100 μL/well) and changed to the compound liquid (100 μL/well). Experiments were set up with the control, and the compound was repeated at each concentration in three wells. The cells were cultured in 96-well plates at 37 °C in humidified air containing 5% CO2 for 90 min. The cells were washed with the dye solution (20 μL/well), and the dyed cells were held for 1 hour at room temperature in the dye liquid. Analysis of nuclear translocation and calculation of the ability of the compounds to inhibit nuclear translocation was performed using the IN Cell Analyzer 1000 Nuclear Trafficking Analysis Module System (GE, Madison, WI, USA). The cultured cells were treated with the obtained compounds in […] concentration grads (1, 3, 10 and 30 nM, 0.1 and 0.3 μM). The inhibitory percentage can be calculated using the amounts of cells after the disposition of the different compounds.

For CC(C)(C)c1cc(NC(=O)Nc2ccccc2Oc2ccc3[nH]ncc3c2)n(-c2ccc(F)cc2)n1 [29g, 1-(2-((1H-Indazol-5-yl)oxy)phenyl)-3-(3-(tert-butyl)-1-(4-fluorophenyl)-1H-pyrazol-5-yl)urea], the IC50 (bound given in µM) was greater than 10 µM.

CC(C)(C)c1cc(NC(=O)Nc2ccccc2OCCN2CCOCC2)n(-c2ccc(Cl)cc2)n1 [28e, 1-(3-(tert-Butyl)-1-(4-chlorophenyl)-1H-pyrazol-5-yl)-3-(2-(2-morpholinoethoxy)phenyl)urea] gave an IC50 (bound given in µM) greater than 10 µM.

CC(C)(C)c1cc(NC(=O)Nc2ccccc2Oc2ccc3[nH]ncc3c2)n(-c2ccc(S(N)(=O)=O)cc2)n1 [29i, 4-(5-(3-(2-((1H-Indazol-5-yl)oxy)phenyl)ureido)-3-(tert-butyl)-1H-pyrazol-1-yl)benzenesulfonamide] was tested, and the IC50 (bound given in µM) was greater than 10 µM.

CC(C)(C)c1cc(NC(=O)Nc2ccccc2Oc2ccc3[nH]ncc3c2)n(-c2ccc(Br)cc2)n1 [29f, 1-(2-((1H-Indazol-5-yl)oxy)phenyl)-3-(1-(4-bromophenyl)-3-(tert-butyl)-1H-pyrazol-5-yl)urea] showed an IC50 (bound given in µM) greater than 10 µM.

In the case of CC(C)(C)c1cc(NC(=O)NCc2ccccc2OCCN2CCOCC2)n(-c2ccc(S(N)(=O)=O)cc2)n1 [30c, 4-(3-(tert-Butyl)-5-(3-(2-(2-morpholinoethoxy)benzyl)ureido)-1H-pyrazol-1-yl)benzenesulfonamide], the IC50 (bound given in µM) is reported as greater than 3 µM.

With CC(C)(C)c1cc(NC(=O)Nc2ccccc2OCCN2CCOCC2)n(-c2ccc(S(N)(=O)=O)cc2)n1 [28i, 4-(3-(tert-Butyl)-5-(3-(2-(2-morpholinoethoxy)phenyl)ureido)-1H-pyrazol-1-yl)benzenesulfonamide] the IC50 (bound given in µM) was greater than 10 µM.

In the case of Cc1ccc(-n2nc(C(C)(C)C)cc2NC(=O)NCc2ccccc2OCCN2CCOCC2)cc1 [30b, 1-(3-(tert-Butyl)-1-(p-tolyl)-1H-pyrazol-5-yl)-3-(2-(2-morpholinoethoxy)benzyl)urea], the IC50 (bound given in µM) is reported as greater than 3 µM.

With CC(C)(C)c1cc(NC(=O)Nc2ccccc2Oc2ccc3[nH]ncc3c2)n(-c2ccc([N+](=O)[O-])cc2)n1 [29h, 1-(2-((1H-Indazol-5-yl)oxy)phenyl)-3-(3-(tert-butyl)-1-(4-nitrophenyl)-1H-pyrazol-5-yl)urea] the IC50 (bound given in µM) was greater than 10 µM.

Molecule Cc1ccc(-n2nc(C(C)(C)C)cc2NC(=O)Nc2ccc(Oc3ccc4[nH]ncc4c3)c3c2OCC=C3)cc1 [26a, 1-(5-((1H-Indazol-5-yl)oxy)-2H-chromen-8-yl)-3-(3-(tert-butyl)-1-(p-tolyl)-1H-pyrazol-5-yl)urea] has an IC50 of 0.0607 ± 0.00231 µM.

CC(C)(C)c1cc(NC(=O)Nc2ccc(Oc3ccc4[nH]ncc4c3)c3c2OCC=C3)n(-c2ccc(S(N)(=O)=O)cc2)n1 [26c, 4-(5-(3-(5-((1H-Indazol-5-yl)oxy)-2H-chromen-8-yl)ureido)-3-(tert-butyl)-1H-pyrazol-1-yl)benzenesulfonamide] showed an IC50 of 0.2457 ± 0.00209 µM.

Work on CC(C)(C)c1cc(NC(=O)Nc2ccccc2Oc2ccc3[nH]ncc3c2)n(-c2ccc(Cl)cc2)n1 [29e, 1-(2-((1H-Indazol-5-yl)oxy)phenyl)-3-(3-(tert-butyl)-1-(4-chlorophenyl)-1H-pyrazol-5-yl)urea] yielded an IC50 (bound given in µM) greater than 10 µM.

COc1ccc(-n2nc(C(C)(C)C)cc2NC(=O)Nc2ccc(Oc3ccc4[nH]ncc4c3)c3c2OCC=C3)cc1 [26d, 1-(5-((1H-Indazol-5-yl)oxy)-2H-chromen-8-yl)-3-(3-(tert-butyl)-1-(4-methoxyphenyl)-1H-pyrazol-5-yl)urea] was tested, and the IC50 was 0.0698 ± 0.00208 µM.

With Cc1cccc(-n2nc(C(C)(C)C)cc2NC(=O)Nc2ccccc2Oc2ccc3[nH]ncc3c2)c1 [29c, 1-(2-((1H-Indazol-5-yl)oxy)phenyl)-3-(3-(tert-butyl)-1-(m-tolyl)-1H-pyrazol-5-yl)urea] the IC50 (bound given in µM) was greater than 10 µM.

For CC(C)(C)c1cc(NC(=O)Nc2ccccc2OCCN2CCOCC2)n(-c2ccc(Br)cc2)n1 [28f, 1-(1-(4-Bromophenyl)-3-(tert-butyl)-1H-pyrazol-5-yl)-3-(2-(2-morpholinoethoxy)phenyl)urea], the IC50 (bound given in µM) was greater than 10 µM.

With CC(C)(C)c1cc(NC(=O)NCc2ccccc2OCCN2CCOCC2)n(-c2ccc(Cl)cc2)n1 [30a, 1-(3-(tert-Butyl)-1-(4-chlorophenyl)-1H-pyrazol-5-yl)-3-(2-(2-morpholinoethoxy)benzyl)urea] the IC50 (bound given in µM) was greater than 3 µM.

With CC(C)(C)c1cc(NC(=O)NCc2ccccc2OCCN2CCOCC2)n(-c2ccccc2)n1 [30d, 1-(3-(tert-Butyl)-1-phenyl-1H-pyrazol-5-yl)-3-(2-(2-morpholinoethoxy)benzyl)urea] the IC50 (bound given in µM) was greater than 3 µM.

For Cc1cccc(-n2nc(C(C)(C)C)cc2NC(=O)Nc2ccccc2OCCN2CCOCC2)c1 [28c, 1-(3-(tert-Butyl)-1-(m-tolyl)-1H-pyrazol-5-yl)-3-(2-(2-morpholinoethoxy)phenyl)urea], the IC50 (bound given in µM) was greater than 10 µM.

CC(C)(C)c1cc(NC(=O)Nc2ccccc2OCCN2CCOCC2)n(-c2ccc(F)cc2)n1 [28g, 1-(3-(tert-Butyl)-1-(4-fluorophenyl)-1H-pyrazol-5-yl)-3-(2-(2-morpholinoethoxy)phenyl)urea] was tested, and the IC50 (bound given in µM) was greater than 10 µM.

COc1ccc(-n2nc(C(C)(C)C)cc2NC(=O)Nc2ccccc2OCCN2CCOCC2)cc1 [28d, 1-(3-(tert-Butyl)-1-(4-methoxyphenyl)-1H-pyrazol-5-yl)-3-(2-(2-morpholinoethoxy)phenyl)urea] was tested, and the IC50 (bound given in µM) was greater than 10 µM.

For COc1ccc(-n2nc(C(C)(C)C)cc2NC(=O)Nc2ccccc2Oc2ccc3[nH]ncc3c2)cc1 [29d, 1-(2-((1H-Indazol-5-yl)oxy)phenyl)-3-(3-(tert-butyl)-1-(4-methoxyphenyl)-1H-pyrazol-5-yl)urea], the IC50 (bound given in µM) was greater than 10 µM.

CC(C)(C)c1cc(NC(=O)Nc2ccccc2OCCN2CCOCC2)n(-c2ccc([N+](=O)[O-])cc2)n1 [28h, 1-(3-(tert-Butyl)-1-(4-nitrophenyl)-1H-pyrazol-5-yl)-3-(2-(2-morpholinoethoxy)phenyl)urea] showed an IC50 (bound given in µM) greater than 10 µM.

CC(C)(C)c1cc(NC(=O)Nc2ccc(Oc3ccc4[nH]ncc4c3)c3c2OCC=C3)n(-c2ccc([N+](=O)[O-])cc2)n1 [26f, 1-(5-((1H-Indazol-5-yl)oxy)-2H-chromen-8-yl)-3-(3-(tert-butyl)-1-(4-nitrophenyl)-1H-pyrazol-5-yl)urea] showed an IC50 of 0.0412 ± 0.00146 µM.
